The assay deals with T1, HMGCoAR (catalytic domain) (Homo sapiens, UniProt P04035).
T1 construct: finally the HMGCoAR (catalytic domain) (2 µL); purchased Sigma
T1 sequence (P04035 426-888 limits assumed): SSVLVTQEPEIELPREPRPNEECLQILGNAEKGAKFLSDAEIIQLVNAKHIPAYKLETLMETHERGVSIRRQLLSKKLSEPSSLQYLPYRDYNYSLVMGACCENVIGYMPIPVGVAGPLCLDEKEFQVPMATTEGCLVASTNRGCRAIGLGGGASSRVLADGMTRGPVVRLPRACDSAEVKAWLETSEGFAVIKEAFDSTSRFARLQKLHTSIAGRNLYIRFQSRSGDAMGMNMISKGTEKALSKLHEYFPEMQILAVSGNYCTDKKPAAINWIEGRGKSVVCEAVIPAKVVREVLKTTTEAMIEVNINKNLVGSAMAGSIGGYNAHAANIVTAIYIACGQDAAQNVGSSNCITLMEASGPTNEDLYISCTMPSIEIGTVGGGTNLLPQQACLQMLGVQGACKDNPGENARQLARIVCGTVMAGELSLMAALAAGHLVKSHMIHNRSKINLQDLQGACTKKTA
The assay is described as follows: In vitro HMGCoAR inhibitory activity assay. Type of assay: biochemical. As to conditions: 37 °C, NADPH absorbance at 340 nm, mean ± sd of three independent experiments in triplicate. The protocol:
The assay buffer, NADPH, substrate solution, and HMGCoAR were provided in the HMGCoAR assay kit (Sigma). The experiments were carried out testing LTFPG at 100 and 250 μM at 37 °C in agreement with the conditions previously reported.[8] For further details, see the Supporting Information.
The assay buffer, NADPH, substrate solution, and HMGCoAR were provided in the HMGCoAR Assay Kit (Sigma). The experiments were carried out following the manufacturer’s instructions at 37 °C. In particular, each reaction (200 µL) was prepared adding the reagents in the following order: 1 X assay buffer, LTFPG (100.0 and 250.0 µM) or vehicle (C), the NADPH (4 µL), the substrate solution (12 µL), and finally the HMGCoAR (catalytic domain) (2 µL). Subsequently, the samples were mixed and the absorbance at 340 nm read by a microplate reader Synergy H1 from Biotek at time 0 and 10 min. The HMGCoAR-dependent oxidation of NADPH and the inhibition properties of lupin peptides were measured by absorbance reduction, which is directly proportional to enzyme […]
In vitro ACE-inhibitory assay […]
The evaluation of the inhibition of ACE activity was based on the comparison between the concentrations of HA in the presence or absence of the inhibitor (Inhibitor Blank). The phenomenon of autolysis of HHL to give HA was evaluated by a reaction blank, i.e. a sample with the higher

No end group written: not given here.

A word on the inhibition: it is the percentage by which the read-out fell short of the control. In the case of LTFPG [LTFPG], for the setting “100 μM”, the inhibition at 100 µM is 4.7 ± 0.3%. Also, the inhibition at 250 µM (250 μM) came to 10.3 ± 0.8%.
